ChEMBL document CHEMBL1130478, “Mono and bis double ester prodrugs of novel aminomethyl-THF 1-methylcarbapenems” (Bioorg Med Chem Lett, 1997)

Columns and labels:
Assay type in all cases: functional
[1] = test system: Mus musculus; assay: Antibacterial activity against Escherichia coli (311) infection in mice after single subcutaneous dose, activity expressed as ED50; conditions: sc
[2] = test system: Mus musculus; assay: Antibacterial activity against Escherichia coli (311) infection in mice after single oral dose, activity expressed as ED50
[3] = biological target: T1, Dipeptidase 1 (Sus scrofa) (UniProt P22412); assay: Relative hydrolysis by hog Dehydropeptidase
T1 sequence (whole entry): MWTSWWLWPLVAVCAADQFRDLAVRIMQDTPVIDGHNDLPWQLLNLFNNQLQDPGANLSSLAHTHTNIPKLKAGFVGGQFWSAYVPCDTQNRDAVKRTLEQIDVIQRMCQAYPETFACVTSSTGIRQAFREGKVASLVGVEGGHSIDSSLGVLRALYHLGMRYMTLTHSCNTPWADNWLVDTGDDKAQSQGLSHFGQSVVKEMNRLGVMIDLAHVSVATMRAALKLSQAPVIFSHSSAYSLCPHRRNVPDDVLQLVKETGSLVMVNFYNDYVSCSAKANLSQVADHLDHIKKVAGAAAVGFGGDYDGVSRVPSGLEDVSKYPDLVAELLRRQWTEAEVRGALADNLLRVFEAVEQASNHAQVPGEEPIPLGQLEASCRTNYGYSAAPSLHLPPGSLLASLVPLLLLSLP

SMILES	ED50 [1] [mg/kg]	ED50 [2] [mg/kg]	Relative hydrolysis [3]
CC(OC(=O)OC1=CCCCC1)OC(=O)C1=C(S[C@@H]2CCO[C@@H]2CN)[C@H](C)C2[C@@H]([C@@H](C)O)C(=O)N12.Cl (some centres undefined)	1.6	> 3.2	
CCOC(=O)OC(C)OC(=O)C1=C(S[C@@H]2CCO[C@@H]2CN)[C@H](C)C2[C@@H]([C@@H](C)O)C(=O)N12.Cl (some centres undefined)	1.8	25	
CC(=O)OC(C)OC(=O)NC[C@H]1OCC[C@H]1SC1=C(C(=O)O)N2C(=O)[C@H]([C@@H](C)O)C2[C@H]1C (some centres undefined)			6
CC(C)C(=O)OCOC(=O)NC[C@H]1OCC[C@H]1SC1=C(C(=O)OCOC(=O)C(C)(C)C)N2C(=O)[C@H]([C@@H](C)O)C2[C@H]1C (some centres undefined)	1.9	1.6	
CCOC(=O)OCOC(=O)C1=C(S[C@@H]2CCO[C@@H]2CNC(=O)OC(C)OC(=O)C(C)C)[C@H](C)C2[C@@H]([C@@H](C)O)C(=O)N12 (some centres undefined)	0.45	0.72	
CC(C)C(=O)OCOC(=O)C1=C(SC2CCOC2CN)[C@H](C)C2[C@@H]([C@@H](C)O)C(=O)N12.CCN(C(C)C)C(C)C (some centres undefined)	0.18	2.3	
CCOC(=O)OCOC(=O)C1=C(S[C@@H]2CCO[C@@H]2CNC(=O)OCOC(=O)c2ccccc2)[C@H](C)C2[C@@H]([C@@H](C)O)C(=O)N12 (some centres undefined)	0.54	0.76	
C[C@H]1C(S[C@@H]2CCO[C@@H]2CNC(=O)OCOC(=O)c2ccccc2)=C(C(=O)[O-])N2C(=O)[C@H]([C@@H](C)O)C12.[Na+] (some centres undefined)	0.32	2.9	
CC(=O)OC(C)OC(=O)NC[C@H]1OCC[C@H]1SC1=C(C(=O)O)N2C(=O)[C@H]([C@@H](C)O)C2[C@H]1C.CCN(C(C)C)C(C)C (some centres undefined)	0.62	4.5	
C[C@H]1C(SC2COC(CN)C2)=C(C(=O)O)N2C(=O)[C@H]([C@@H](C)O)C12 (some centres undefined)	0.28	3.5	
